Where no end group is shown, it is not given here.
Columns and labels:
Test in all cases: Histone peptide microarray
Assay type in all cases: binding, human
TRIM66 (PB) = conditions: TRIM66 (PB), GST-tagged; arrays performed twice, n of 4
Method in brief: (§1)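 Steps: express and purify GST-tagged PHD reader; incubate 0.5 μM protein on a peptide microarray (293 histone peptides, single or combined PTMs) following an optimized protocol; average signal across 4 replicates.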

MORC3 (CW) = conditions: MORC3 (CW), GST-tagged; arrays performed twice, n of 4
Method in brief: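 Readout is array binding signal, reported as the mean and standard deviation over four replicates. Each purified GST-fused PHD domain was incubated at 0.5 μM with a library of 293 modified histone peptides.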

KDM5A (3) = conditions: KDM5A (3), GST-tagged; arrays performed twice, n of 4
Method in brief: as §1

CHD4 (PPCC) = conditions: CHD4 (PPCC), GST-tagged; arrays performed twice, n of 4
Method in brief: as §1

BPTF (PB) = conditions: BPTF (PB), GST-tagged; arrays performed twice, n of 4
Method in brief: as §1

DPF2 (PPC2W2) = conditions: DPF2 (PPC2W2), GST-tagged; arrays performed twice, n of 4
Method in brief: as §1

SP140L = conditions: SP140L, GST-tagged; arrays performed twice, n of 4
Method in brief: as §1

ING3 = conditions: ING3, GST-tagged; arrays performed twice, n of 4
Method in brief: as §1

ING5 = conditions: ING5, GST-tagged; arrays performed twice, n of 4
Method in brief: as §1

RAG2 = conditions: RAG2, GST-tagged; arrays performed twice, n of 4
Method in brief: as §1

CHD5 (PCC) = conditions: CHD5 (PCC), GST-tagged; arrays performed twice, n of 4
Method in brief: as §1

PHF8 = conditions: PHF8, GST-tagged; arrays performed twice, n of 4
Method in brief: as §1

PHF2 = conditions: PHF2, GST-tagged; arrays performed twice, n of 4
Method in brief: as §1

ING2 = conditions: ING2, GST-tagged; arrays performed twice, n of 4
Method in brief: as §1

ING1 = conditions: ING1, GST-tagged; arrays performed twice, n of 4
Method in brief: as §1

KDM5B (1) = conditions: KDM5B (1), GST-tagged; arrays performed twice, n of 4
Method in brief: as §1

DIDO1 = conditions: DIDO1, GST-tagged; arrays performed twice, n of 4
Method in brief: as §1

CHD5 (PPCC) = conditions: CHD5 (PPCC), GST-tagged; arrays performed twice, n of 4
Method in brief: as §1

PHF13 = conditions: PHF13, GST-tagged; arrays performed twice, n of 4
Method in brief: as §1

TAF3 = conditions: TAF3, GST-tagged; arrays performed twice, n of 4
Method in brief: as §1

PHF21A = conditions: PHF21A, GST-tagged; arrays performed twice, n of 4
Method in brief: as §1

MLL5 = conditions: MLL5, GST-tagged; arrays performed twice, n of 4
Method in brief: as §1

KDM5A (1) = conditions: KDM5A (1), GST-tagged; arrays performed twice, n of 4
Method in brief: as §1

PHRF1 (RP) = conditions: PHRF1 (RP), GST-tagged; arrays performed twice, n of 4
Method in brief: as §1

KDM4C (TTP) = conditions: KDM4C (TTP), GST-tagged; arrays performed twice, n of 4
Method in brief: as §1

ING4 = conditions: ING4, GST-tagged; arrays performed twice, n of 4
Method in brief: as §1

KDM5B (3) = conditions: KDM5B (3), GST-tagged; arrays performed twice, n of 4
Method in brief: as §1

BAZ2B = conditions: BAZ2B, GST-tagged; arrays performed twice, n of 4
Method in brief: as §1

KDM7A = conditions: KDM7A, GST-tagged; arrays performed twice, n of 4
Method in brief: as §1

PHF23 = conditions: PHF23, GST-tagged; arrays performed twice, n of 4
Method in brief: as §1

AIRE (PP) = conditions: AIRE (PP), GST-tagged; arrays performed twice, n of 4
Method in brief: as §1

Array Heatmap value (peptide array binding signal) (TRIM66 (PB))	Array Heatmap value (peptide array binding signal) (MORC3 (CW))	Array Heatmap value (peptide array binding signal) (KDM5A (3))	Array Heatmap value (peptide array binding signal) (CHD4 (PPCC))	Array Heatmap value (peptide array binding signal) (BPTF (PB))	Array Heatmap value (peptide array binding signal) (DPF2 (PPC2W2))	Array Heatmap value (peptide array binding signal) (SP140L)	Array Heatmap value (peptide array binding signal) (ING3)	Array Heatmap value (peptide array binding signal) (ING5)	Array Heatmap value (peptide array binding signal) (RAG2)	Array Heatmap value (peptide array binding signal) (CHD5 (PCC))	Array Heatmap value (peptide array binding signal) (PHF8)	Array Heatmap value (peptide array binding signal) (PHF2)	Array Heatmap value (peptide array binding signal) (ING2)	Array Heatmap value (peptide array binding signal) (ING1)	Array Heatmap value (peptide array binding signal) (KDM5B (1))	Array Heatmap value (peptide array binding signal) (DIDO1)	Array Heatmap value (peptide array binding signal) (CHD5 (PPCC))	Array Heatmap value (peptide array binding signal) (PHF13)	Array Heatmap value (peptide array binding signal) (TAF3)	further results	Substance
0.5961	0.3391	0.3797	0.6135	0.3685	0.6377	0.3715	0.496	0.3842	0.2498	0.8332	0.3219	0.4316	0.5908	0.4954	0.6403	0.604	0.5873	0.6532	0.2733	Array Heatmap value (peptide array binding signal) (PHF21A): 0.5207; Array Heatmap value (peptide array binding signal) (MLL5): 0.5351; Array Heatmap value (peptide array binding signal) (KDM5A (1)): 0.5024; Array Heatmap value (peptide array binding signal) (PHRF1 (RP)): 0.4; Array Heatmap value (peptide array binding signal) (KDM4C (TTP)): 0.5414; Array Heatmap value (peptide array binding signal) (ING4): 0.4824; Array Heatmap value (peptide array binding signal) (KDM5B (3)): 0.5497; Array Heatmap value (peptide array binding signal) (BAZ2B): 0.5161; Array Heatmap value (peptide array binding signal) (KDM7A): 0.4248; Array Heatmap value (peptide array binding signal) (PHF23): 0.5334; Array Heatmap value (peptide array binding signal) (AIRE (PP)): 0.5505	H4K12ac + K20ac: H4 1-23
0.6047	0.3596	0.4384	0.5868	0.3429	0.6849	0.3381	0.4727	0.347	0.2487	0.8241	0.3437	0.578	0.6036	0.553	0.6598	0.7417	0.5319	0.611	0.2598	Array Heatmap value (peptide array binding signal) (PHF21A): 0.4355; Array Heatmap value (peptide array binding signal) (MLL5): 0.5826; Array Heatmap value (peptide array binding signal) (KDM5A (1)): 0.4416; Array Heatmap value (peptide array binding signal) (PHRF1 (RP)): 0.4941; Array Heatmap value (peptide array binding signal) (KDM4C (TTP)): 0.445; Array Heatmap value (peptide array binding signal) (ING4): 0.4387; Array Heatmap value (peptide array binding signal) (KDM5B (3)): 0.4684; Array Heatmap value (peptide array binding signal) (BAZ2B): 0.4631; Array Heatmap value (peptide array binding signal) (KDM7A): 0.3252; Array Heatmap value (peptide array binding signal) (PHF23): 0.5714; Array Heatmap value (peptide array binding signal) (AIRE (PP)): 0.4232	H4K12ac + KQ5,8,16,20: H4 1-23 (SGRGQGGQGLGK(Ac)GGAQRHRQVLR; UniProt P62805 2-24, looked up, variant K5Q K8Q K16Q K20Q)
